Measurements as given in ChEMBL document CHEMBL2434914 (Bioorg Med Chem Lett, 2013).

What was measured:
Histone deacetylase 2 = Histone deacetylase 2 (Homo sapiens, UniProt Q92769); assay: Inhibition of HDAC2 (unknown origin) using MAZ1600 and MAZ1675 as substrate assessed as fluorogenic release of 7-amino-4-methylcoumarin from substrate by optimized homogenous assay
Histone deacetylase 1 = Histone deacetylase 1 (Homo sapiens, UniProt Q13547); assay: Inhibition of HDAC1 (unknown origin) using MAZ1600 and MAZ1675 as substrate assessed as fluorogenic release of 7-amino-4-methylcoumarin from substrate by optimized homogenous assay
Histone deacetylase 3 = Histone deacetylase 3 (Homo sapiens, UniProt O15379); assay: Inhibition of HDAC3 (unknown origin) using MAZ1600 and MAZ1675 as substrate assessed as fluorogenic release of 7-amino-4-methylcoumarin from substrate by optimized homogenous assay
[1] = Cytotoxicity against human MM1S cells after 48 hrs by ATPlite assay; format: functional, cell-based; settings: MM1.S
[2] = target: T1, Protein deacetylase HDAC6 (Homo sapiens, UniProt Q9UBN7); assay: Inhibition of HDAC6 (unknown origin) using MAZ1600 and MAZ1675 as substrate assessed as fluorogenic release of 7-amino-4-methylcoumarin from substrate by optimized homogenous assay
T1 sequence (Q9UBN7 whole entry): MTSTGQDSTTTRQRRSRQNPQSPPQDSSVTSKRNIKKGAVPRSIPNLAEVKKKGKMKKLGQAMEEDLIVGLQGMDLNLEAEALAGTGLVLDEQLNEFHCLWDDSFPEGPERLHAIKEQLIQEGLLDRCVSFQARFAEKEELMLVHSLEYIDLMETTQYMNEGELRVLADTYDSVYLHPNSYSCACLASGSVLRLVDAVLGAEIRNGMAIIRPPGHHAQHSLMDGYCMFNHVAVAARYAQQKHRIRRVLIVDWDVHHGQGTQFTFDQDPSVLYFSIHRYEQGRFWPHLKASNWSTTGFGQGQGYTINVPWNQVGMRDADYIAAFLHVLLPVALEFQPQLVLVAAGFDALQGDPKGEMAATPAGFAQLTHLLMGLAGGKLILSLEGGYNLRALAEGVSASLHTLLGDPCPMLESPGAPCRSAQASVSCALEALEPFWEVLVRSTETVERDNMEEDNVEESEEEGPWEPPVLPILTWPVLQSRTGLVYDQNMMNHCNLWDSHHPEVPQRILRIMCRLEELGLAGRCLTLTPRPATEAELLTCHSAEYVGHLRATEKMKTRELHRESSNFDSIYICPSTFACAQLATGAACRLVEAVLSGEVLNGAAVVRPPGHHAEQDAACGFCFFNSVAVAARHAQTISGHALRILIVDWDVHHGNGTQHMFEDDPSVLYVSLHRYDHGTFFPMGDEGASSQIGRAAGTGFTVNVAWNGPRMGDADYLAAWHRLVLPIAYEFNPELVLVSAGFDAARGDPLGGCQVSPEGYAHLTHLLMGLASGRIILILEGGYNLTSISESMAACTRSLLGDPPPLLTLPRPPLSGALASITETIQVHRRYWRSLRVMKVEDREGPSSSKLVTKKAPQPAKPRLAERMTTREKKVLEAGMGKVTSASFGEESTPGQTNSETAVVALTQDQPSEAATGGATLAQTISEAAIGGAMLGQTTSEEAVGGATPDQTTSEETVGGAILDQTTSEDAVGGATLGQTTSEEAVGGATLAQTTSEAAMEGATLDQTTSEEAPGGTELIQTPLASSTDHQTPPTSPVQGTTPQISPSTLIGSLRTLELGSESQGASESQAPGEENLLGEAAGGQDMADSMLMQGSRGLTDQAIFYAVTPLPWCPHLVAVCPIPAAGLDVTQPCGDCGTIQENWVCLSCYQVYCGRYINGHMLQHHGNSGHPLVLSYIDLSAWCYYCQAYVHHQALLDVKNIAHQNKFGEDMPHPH

Histone deacetylase 7 = target: T2, Histone deacetylase 7 (Homo sapiens, UniProt Q8WUI4); assay: Inhibition of HDAC7 (unknown origin) using MAZ1600 and MAZ1675 as substrate assessed as fluorogenic release of 7-amino-4-methylcoumarin from substrate by optimized homogenous assay
T2 sequence (Q8WUI4 whole entry): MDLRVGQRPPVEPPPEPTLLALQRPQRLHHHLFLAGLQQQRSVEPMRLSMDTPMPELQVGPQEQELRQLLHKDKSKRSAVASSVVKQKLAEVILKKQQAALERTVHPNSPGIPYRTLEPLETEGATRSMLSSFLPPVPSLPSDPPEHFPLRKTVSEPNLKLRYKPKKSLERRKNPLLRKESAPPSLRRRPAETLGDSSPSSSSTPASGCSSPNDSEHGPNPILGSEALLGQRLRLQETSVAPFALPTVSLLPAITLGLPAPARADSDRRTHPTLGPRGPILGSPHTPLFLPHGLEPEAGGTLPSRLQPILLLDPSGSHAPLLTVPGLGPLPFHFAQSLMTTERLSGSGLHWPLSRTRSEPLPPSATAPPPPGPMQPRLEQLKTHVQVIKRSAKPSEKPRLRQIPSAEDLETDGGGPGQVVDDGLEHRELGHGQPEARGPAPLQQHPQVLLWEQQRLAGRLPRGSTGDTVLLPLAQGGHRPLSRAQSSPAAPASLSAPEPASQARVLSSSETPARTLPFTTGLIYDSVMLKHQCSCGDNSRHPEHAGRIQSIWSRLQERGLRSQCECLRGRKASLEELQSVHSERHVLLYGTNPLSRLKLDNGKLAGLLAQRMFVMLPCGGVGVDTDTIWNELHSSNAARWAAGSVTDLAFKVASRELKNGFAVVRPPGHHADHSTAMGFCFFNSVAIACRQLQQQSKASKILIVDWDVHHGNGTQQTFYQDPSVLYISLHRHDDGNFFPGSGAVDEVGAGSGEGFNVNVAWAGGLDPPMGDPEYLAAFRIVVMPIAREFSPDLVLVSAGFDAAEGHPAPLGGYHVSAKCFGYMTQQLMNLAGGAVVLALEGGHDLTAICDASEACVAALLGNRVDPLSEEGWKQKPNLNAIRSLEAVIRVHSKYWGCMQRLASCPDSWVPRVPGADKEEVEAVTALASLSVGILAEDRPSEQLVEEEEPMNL

Histone deacetylase 8 = target: T3, Histone deacetylase 8 (Homo sapiens, UniProt Q9BY41); assay: Inhibition of HDAC8 (unknown origin) using MAZ1600 and MAZ1675 as substrate assessed as fluorogenic release of 7-amino-4-methylcoumarin from substrate by optimized homogenous assay
T3 sequence (Q9BY41 whole entry): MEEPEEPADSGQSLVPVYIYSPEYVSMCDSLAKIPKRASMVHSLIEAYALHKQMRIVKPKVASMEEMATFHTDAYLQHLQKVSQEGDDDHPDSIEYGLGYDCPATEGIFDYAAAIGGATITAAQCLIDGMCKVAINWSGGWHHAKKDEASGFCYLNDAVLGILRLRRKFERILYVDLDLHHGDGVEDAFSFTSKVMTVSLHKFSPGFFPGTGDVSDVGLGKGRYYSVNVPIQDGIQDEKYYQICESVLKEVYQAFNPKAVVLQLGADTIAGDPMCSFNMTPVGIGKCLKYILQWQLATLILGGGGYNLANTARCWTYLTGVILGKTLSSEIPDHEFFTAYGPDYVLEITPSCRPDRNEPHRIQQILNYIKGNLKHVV

Chain of Histone deacetylase 1 (Q13547 whole entry): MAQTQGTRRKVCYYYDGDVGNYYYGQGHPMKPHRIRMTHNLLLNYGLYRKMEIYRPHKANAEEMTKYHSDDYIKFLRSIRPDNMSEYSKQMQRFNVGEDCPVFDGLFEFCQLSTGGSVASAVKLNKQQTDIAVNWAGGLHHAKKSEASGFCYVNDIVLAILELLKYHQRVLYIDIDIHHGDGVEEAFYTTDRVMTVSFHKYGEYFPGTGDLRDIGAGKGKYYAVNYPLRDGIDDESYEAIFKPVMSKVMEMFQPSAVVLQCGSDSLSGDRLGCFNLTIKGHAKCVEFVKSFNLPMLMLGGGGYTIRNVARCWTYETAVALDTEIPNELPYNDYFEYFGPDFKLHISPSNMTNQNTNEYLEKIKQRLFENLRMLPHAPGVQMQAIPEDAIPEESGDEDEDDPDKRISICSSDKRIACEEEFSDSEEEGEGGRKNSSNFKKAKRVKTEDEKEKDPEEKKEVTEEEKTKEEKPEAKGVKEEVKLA
Chain of Histone deacetylase 2 (Q92769 whole entry): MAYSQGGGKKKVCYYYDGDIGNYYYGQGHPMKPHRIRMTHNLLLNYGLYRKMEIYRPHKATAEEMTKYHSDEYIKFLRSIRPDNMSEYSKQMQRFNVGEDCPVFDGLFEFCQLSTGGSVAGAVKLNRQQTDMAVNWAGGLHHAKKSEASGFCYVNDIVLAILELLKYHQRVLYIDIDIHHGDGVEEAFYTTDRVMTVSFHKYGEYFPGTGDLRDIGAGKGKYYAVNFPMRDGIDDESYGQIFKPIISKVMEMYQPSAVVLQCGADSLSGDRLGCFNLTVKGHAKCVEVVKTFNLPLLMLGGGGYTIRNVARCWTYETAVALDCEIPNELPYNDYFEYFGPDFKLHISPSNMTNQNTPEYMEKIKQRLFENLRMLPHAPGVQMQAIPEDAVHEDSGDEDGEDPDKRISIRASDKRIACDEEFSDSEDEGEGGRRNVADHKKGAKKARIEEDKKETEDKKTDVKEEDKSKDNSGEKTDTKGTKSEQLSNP
Chain of Histone deacetylase 3 (O15379 whole entry): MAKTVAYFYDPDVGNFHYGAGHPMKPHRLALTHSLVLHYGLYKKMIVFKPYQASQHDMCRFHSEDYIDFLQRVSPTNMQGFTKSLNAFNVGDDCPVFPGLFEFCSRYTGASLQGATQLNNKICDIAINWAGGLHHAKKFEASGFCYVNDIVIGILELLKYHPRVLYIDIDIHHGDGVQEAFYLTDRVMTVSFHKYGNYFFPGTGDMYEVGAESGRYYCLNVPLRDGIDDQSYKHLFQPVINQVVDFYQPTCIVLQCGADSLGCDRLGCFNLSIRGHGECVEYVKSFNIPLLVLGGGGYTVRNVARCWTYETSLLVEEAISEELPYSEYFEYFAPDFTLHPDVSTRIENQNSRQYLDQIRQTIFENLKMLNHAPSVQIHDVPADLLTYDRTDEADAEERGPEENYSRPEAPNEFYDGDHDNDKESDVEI

IC50 (Histone deacetylase 2) [µM] | IC50 (Histone deacetylase 1) [µM] | IC50 (Histone deacetylase 3) [µM] | IC50 [2] [µM] | IC50 (Histone deacetylase 7) [µM] | IC50 (Histone deacetylase 8) [µM] | SMILES | IC50 [1] [µM]
2.1 | 0.95 | 1.9 | 1.1 | – | – | CCCCCCCC(=O)SCC/C=C/[C@@H]1CC(=O)NCc2nc(co2)C2=N[C@@](C)(CS2)C(=O)N[C@@H](C(C)C)C(=O)O1 | 0.12
0.02 | 0.0044 | 0.0072 | 0.098 | 0.96 | 1.2 | CC(C)[C@@H]1NC(=O)[C@]2(C)CSC(=N2)c2coc(n2)CNC(=O)C[C@@H](/C=C/CCS)OC1=O | 6.2

SMILES | IC50 (Histone deacetylase 2) [µM] | IC50 (Histone deacetylase 1) [µM] | IC50 (Histone deacetylase 3) [µM] | IC50 [2] [µM] | IC50 (Histone deacetylase 7) [µM] | IC50 (Histone deacetylase 8) [µM] | IC50 [1] [µM]
CC(C)[C@@H]1NC(=O)[C@]2(C)CSC(=N2)c2coc(n2)CNC(=O)C[C@@H](/C=C/CCSSCC/C=C/[C@@H]2CC(=O)NCc3nc(co3)C3=N[C@@](C)(CS3)C(=O)N[C@@H](C(C)C)C(=O)O2)OC1=O | 1.3 | 0.15 | 0.55 | 0.05 | – | – | 0.91
